# Where “and” joins values, the source holds several entries; their conditions need not be identical. Equal entries are not always repeated. Where two headings read alike, the source gives them in different places.
# Experiments:
# [1] = system: B. Fragilis ATCC 23745; settings: for ED (1 log reduction): Bacteroides fragilis, ATCC23745, in Mus musculus, po
# [2] = system: Clostridium perfringens NCTC 8237; experiment: microbe, parasite or virus in culture; format: cell-based; settings: NCTC8237
# [3] = system: Campylobacter fetus ss.jejuni ATCC 29428; experiment: MIC vs. panel of anaerobes; format: cell-based; settings: ATCC29428
# [4] = system: B. fragilis MZ-R ATCC 11295; experiment: MIC/MBC broth microdilution, strain D; format: cell-based; settings: Bacteroides fragilis, ATCC11295, 48 h; for MBC: 99.9% reduction in viable count after 48 h
# [5] = system: B. fragilis NCTC 10581; experiment: MIC/MBC broth microdilution, strain A; format: cell-based; settings: Bacteroides fragilis, NCTC10581, 48 h; for MBC: 99.9% reduction in viable count after 48 h; for MIC: 37° C., anaerobic
# [6] = system: B. fragilis NCTC 9343; experiment: MIC/MBC broth microdilution, strain B; format: cell-based; settings: Bacteroides fragilis, NCTC9343, 48 h; for MBC: 99.9% reduction in viable count after 48 h; for MIC: 37° C., anaerobic
# [7] = system: Fusobacterium necrophorum ATCC 11295; experiment: MIC vs. panel of anaerobes; format: cell-based; settings: ATCC11295
# [8] = system: Clostridium difficile NCIB 10666; experiment: MIC vs. panel of anaerobes; format: cell-based; settings: Clostridioides difficile, NCIB10666
# [9] = system: Clostridium perfringens NCTC 523; experiment: microbe, parasite or virus in culture; format: cell-based; settings: NCTC523
# [10] = system: Propionebacterium acnes NCTC 7337; experiment: MIC vs. panel of anaerobes; format: cell-based
# [11] = system: B. fragilis NCTC 9344; experiment: MIC/MBC broth microdilution, strain C; format: cell-based, Bacteroides fragilis; settings: for MIC: 37° C., anaerobic; for MBC: 99.9% reduction in viable count after 48 h
# [12] = system: Clostridium difficile Cytotoxic 1; experiment: MIC vs. panel of anaerobes; format: cell-based; settings: Clostridioides difficile
# [13] = system: B. fragilis WS-1; experiment: MIC/MBC broth microdilution, strain E; format: cell-based, Bacteroides fragilis; settings: for MBC: 99.9% reduction in viable count after 48 h; for MIC: 37° C., anaerobic
# [14] = system: Propionebecterium acnes NCTC 737; experiment: MIC vs. panel of anaerobes; format: cell-based
# [15] = system: Peptostreptococcus anaerobicus; experiment: MIC vs. panel of anaerobes; format: cell-based
# [16] = system: Bacteroides melanogenicus NCTC 9336; experiment: MIC vs. panel of anaerobes; format: cell-based; settings: NCTC9336
# [17] = 48 h, read-out: Dose giving 1 log reduction, p.o., after infection and twice daily for 2 days, 1 log (90%) reduction of CFU/ml liver homogenate vs untreated, compound of Example
# [18] = Fusobacterium necrophorum ATCC 11295, read-out: MIC
# [19] = Clostridium difficile NCIB 10666, read-out: MIC
# [20] = Bacteroides fragilis, NCTC9344, 48 h, read-out: MIC
# [21] = Bacteroides fragilis, NCTC9344, 48 h, read-out: MBC
# [22] = Bacteroides fragilis, WS1, 48 h
# [23] = Bacteroides fragilis, WS1, 48 h, 48 h
# [24] = Peptostreptococcus anaerobicus, read-out: MIC
# [25] = Bacteroides melanogenicus NCTC 9336, read-out: MIC
# [26] = Bacteroides fragilis, WS1, 48 h, read-out: MIC
# [27] = strain D (MZ-R), 48 h, 37° C., anaerobic, read-out: MIC
# [28] = Bacteroides fragilis, NCTC9344, 48 h, 48 h
SMILES,"ED (1 log reduction) [1, 17] [mg/kg]",MIC [2] [mg/L],MIC [3] [mg/L],MIC [4] [mg/L],MBC ([4]; strain D (MZ-R)) [mg/L],MBC [5] [mg/L],MBC [6] [mg/L],"MIC [7, 18] [mg/L]","MIC [8, 19] [mg/L]",MIC [9] [mg/L],MIC [10] [mg/L],"MIC [11, 20] [mg/L]","MBC [11, 21] [mg/L]",MIC [12] [mg/L],"MBC [13, 22] [mg/L]",MIC [14] [mg/L],"MIC [15, 24] [mg/L]","MIC [16, 25] [mg/L]",MIC ([5]; read-out: MIC) [mg/L],MIC ([6]; read-out: MIC) [mg/L],other results
"[O-][N+]1=C(c2ccccc2)C2=NCCN2c2cc(F)ccc21 [Example 1, 1,2-Dihydro-8-fluoro-4-phenylimidazo[1,2-a]quinoxaline 5-oxide]",7.57,3.1,2.5,0.8,1.5,3.1,3.1,< 0.8,< 0.8,3.1,50,1.5,1.5,< 0.8,3.1,50,25,25,,,"MIC ([5]; 48 h): 3.1 mg/L; MIC ([6]; 48 h): 3.1 mg/L; MIC [13, 23]: 3.1 mg/L"
"[O-][N+]1=C(c2ccccc2)C2=NCCN2c2cc(F)c(F)cc21 [Example 2, 1,2-Dihydro-7,8-difluoro-4-phenylimidazo[1,2-a]quinoxaline 5-oxide]",< 40,6.2,12.5,0.08,0.15,0.6,0.15,3.1,,6.2,25,0.6,0.6,6.2,0.6,25,12.5,6.2,0.6,0.15,"MIC [8]: < 0.8 mg/L; MIC [13, 26]: 0.6 mg/L"
"[O-][N+]1=C(c2ccccc2)C2=NCCN2c2nc(Cl)ccc21 [Example 3, 8-Chloro-1,2-dihydro-4-phenylimidazo[1,2-a]pyrido[3,2-e]-pyrazine 5-oxide]",< 40,25,50,3.1,3.1,12.5,12.5,6.2,< 0.8,6.2,100,6.2,6.2,< 0.8,6.2,> 100,50,100,12.5,12.5,"MIC [13, 26]: 6.2 mg/L"
"CN1CCN(c2ccc3c(c2)N2CCN=C2C(c2ccccc2)=[N+]3[O-])CC1 [Example 4, 1,2-Dihydro-8-(4-methylpiperazinyl)-4-phenylimidazo[1,2-a]-quinoxaline 5-oxide]",7.73,12.5,25,,1.5,3.1,3.1,6.2,1.5,6.2,25,,3.1,6.2,6.2,25,,,,,"MIC [4, 27]: 1.5 mg/L; MIC ([5]; 48 h): 3.1 mg/L; MIC ([6]; 48 h): 3.1 mg/L; MIC [11, 28]: 3.1 mg/L; MIC [13, 26]: 6.2 mg/L; MIC ([15]; Peptostreptococcus): 12.5 mg/L; MIC ([16]; Bacteroides): 12.5 mg/L"
"[O-][N+]1=C(c2ccccc2)C2=NCCN2c2cc(N3CCN(c4ccccc4)CC3)c(F)cc21 [Example 5, 1,2-Dihydro-7-fluoro-4-phenyl-8-(4-phenylpiperazinyl)imidazo[1,2-a]quinoxaline 5-oxide]",11.7,6.2,> 100,0.8,,,,6.2,< 0.8,3.1,> 100,6.2,,< 0.8,,> 100,> 100,> 100,,1.5,"MIC ([5]; 48 h): 3.1 mg/L; MIC [13, 26]: 1.5 mg/L"
"[O-][N+]1=C(c2ccccc2)C2=NCCN2c2cc(N3CCN(Cc4ccccc4)CC3)ccc21 [Example 6, 1,2-Dihydro-4-phenyl-8-(4-phenylmethylpiperazinyl)imidazo[1,2-a]quinoxaline5-oxide]",6.27,12.5,100,,25,25,50,,< 0.8,12.5,50,,25,3.1,25,50,100,50,25,50,"MIC [4, 27]: 25 mg/L; MIC ([7]; Fusobacterium necrophorum): 12.5 mg/L; MIC [11, 28]: 12.5 mg/L; MIC [13, 26]: 25 mg/L"
"CC(=O)N1CCN(c2ccc3c(c2)N2CCN=C2C(c2ccccc2)=[N+]3[O-])CC1 [Example 7, 8-(4-Acetylpiperazinyl)-1,2-dihydro-4-phenylimidazo[1,2-a]quinoxaline 5-oxide]",11.3,3.1,12.5,,1.5,6.2,3.1,3.1,< 0.8,1.5,12.5,6.2,6.2,< 0.8,6.2,25,12.5,6.2,6.2,,"MIC [4, 27]: 1.5 mg/L; MIC ([6]; 48 h): 3.1 mg/L; MIC [13, 26]: 6.2 mg/L"
"[O-][N+]1=C(c2ccccc2)C2=NCCN2c2cc(N3CCN(c4ccccc4)CC3)ccc21 [Example 8, 1,2-Dihydro-4-phenyl-8-(4-phenylpiperazinyl)imidazo[1,2-a]quinoxaline 5-oxide]",,3.1,> 100,< 0.8,,,,3.1,< 0.8,1.5,> 100,,,< 0.8,,> 100,> 100,> 100,1.5,1.5,"MIC [11, 28]: < 0.8 mg/L; MIC [13, 23]: 3.1 mg/L"
"CN1CCN(c2ccc3c(n2)N2CCN=C2C(c2ccccc2)=[N+]3[O-])CC1 [Example 9, 1,2-Dihydro-8-(4-methylpiperazinyl)-4-phenylimidazo[1,2-a]pyrido[3,2-e]pyrazine 5-oxide]",4.48,,,0.8,0.8,0.8,0.8,,,,,,0.8,,,,,,,,"MIC ([5]; 48 h): 0.8 mg/L; MIC ([6]; 48 h): 0.8 mg/L; MIC [11, 28]: 0.8 mg/L"
"[O-][N+]1=C(c2ccccc2)C2=NCCN2c2nc(N3CCN(Cc4ccccc4)CC3)ccc21 [Example 17, 1,2-Dihydro-4-phenyl-8-(4-phenylmethylpiperazinyl)imidazo[1,2-a]pyrido[3,2-e]pyrazine 5-oxide]",3.59,,,,,,,,,,,,,,,,,,,,
"Cc1ncc([N+](=O)[O-])n1CCO [Metronidazole, reference compound]",,1.5,> 100,3.1,,0.8,,6.2,,< 0.8,> 100,0.6,0.6,< 0.8,,> 100,> 100,> 100,0.6,0.6,"reduction in B. fragilis ([1]; 40 mg/kg (p.o.)): 3-3.5 log10; ED (1 log reduction) ([1]; read-out: Dose giving 1 log reduction, Metronidazole, p.o., positive control beside the compound of the same line): 1.64 mg/kg; MIC ([5]; 48 h): < 0.8 mg/L; MIC ([6]; 48 h): 0.8 mg/L; MBC [11]: 0.8 mg/L and < 0.8 mg/L; MIC ([11]; 48 h): 0.8 mg/L; MIC [11, 28]: < 0.8 mg/L; MIC ([13]; 48 h): < 0.8 mg/L and 0.8 mg/L; MIC [13, 23]: 1.5 mg/L"
